According to US20230233569A1 (Revolution Medicines, Inc., priority 2020, published 2023):
Read-outs that look alike come from different tables or passages of the source.

How the values were obtained:
NCI-H358 (K-Ras G12C) = assay: CellTiter-Glo cell viability assay, 5-day treatment; type: cell-based; settings: Homo sapiens
Method: Protocol: CellTiter-Glo® Cell Viability Assay
Note—The following protocol describes a procedure for monitoring cell viability of K-Ras mutant cancer cell lines in response to a compound of the invention. Other RAS isoforms may be employed, though the number of cells to be seeded will vary based on cell line used.
(§1) Test compounds (132.5 nL) were directly dispensed into the assay plates containing cells. […] On day 5, assay plates and their contents were equilibrated to room temperature for approximately 30 minutes. […] Luminescence was measured using the PerkinElmer Enspire. Data were normalized by the following: (Sample signal/Avg. DMSO)*100. The data were fit using a four-parameter logistic fit.
as §1, with “nl)” for “nL)”

KRAS G12D = KRAS G12D (Homo sapiens, UniProt P01116+P62937, G12D); assay: Disruption of BRAF RBD interaction with Ras (FRET / MOA assay, with Cyclophilin A); type: biochemical
KRAS G12D, sequence (P01116 1-169 isoform P01116-2 G12D limits assumed): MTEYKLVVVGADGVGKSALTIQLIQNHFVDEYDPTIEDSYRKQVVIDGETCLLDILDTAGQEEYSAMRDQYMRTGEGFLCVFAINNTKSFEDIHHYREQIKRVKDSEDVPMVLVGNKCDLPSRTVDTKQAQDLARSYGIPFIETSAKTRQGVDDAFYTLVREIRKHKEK
KRAS G12D, sequence (P62937 whole entry): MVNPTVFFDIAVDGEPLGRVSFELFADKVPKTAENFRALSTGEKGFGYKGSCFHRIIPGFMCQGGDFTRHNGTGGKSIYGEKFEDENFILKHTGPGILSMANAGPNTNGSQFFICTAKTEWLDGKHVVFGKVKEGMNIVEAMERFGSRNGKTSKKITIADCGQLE
From the text: (§2) This protocol may also be executed substituting other Ras proteins or nucleotides.
(§3) The purpose of this biochemical assay was to measure the ability of test compounds to facilitate ternary complex formation between a nucleotide-loaded K-Ras isoform and Cyclophilin A; the resulting ternary complex disrupts binding to a BRAF^RBD construct, inhibiting K-Ras signaling through a RAF effector. Data is reported as IC50 values.
(§4) Compound was present in plate wells as a 10-point 3-fold dilution series starting at a final concentration of 30 μM. After incubation at 25° C. for 3 hours, a mixture of Anti-His Eu-W1024 and anti-GST allophycocyanin was then added to assay sample wells at final concentrations of 10 nM and 50 nM, respectively, and the reaction incubated for an additional 1.5 hours. […] Compounds that facilitate disruption of a K-Ras:RAF complex were identified as those eliciting a decrease in the TR-FRET ratio relative to DMSO control wells.
as §3, with “BRAF^RBDD” for “BRAF^RBD”

KRAS G12S = KRAS G12S (Homo sapiens, UniProt P01116+P62937, G12S); assay: as above; type: biochemical
KRAS G12S, sequence (P01116 1-169 isoform P01116-2 G12S limits assumed): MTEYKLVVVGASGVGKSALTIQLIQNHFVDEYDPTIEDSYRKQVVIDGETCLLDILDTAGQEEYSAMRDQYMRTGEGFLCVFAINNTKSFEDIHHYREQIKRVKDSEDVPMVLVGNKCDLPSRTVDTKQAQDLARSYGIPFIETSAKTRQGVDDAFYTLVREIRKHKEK
KRAS G12S, sequence (P62937 whole entry): as the sequence (P62937 whole entry) above
From the text: as §2, §3, §4
as §3, with “BRAF^RBDD” for “BRAF^RBD”

KRAS G13D = KRAS G13D (Homo sapiens, UniProt P01116+P62937, G13D); assay: as above; type: biochemical
KRAS G13D, sequence (P01116 1-169 isoform P01116-2 G13D limits assumed): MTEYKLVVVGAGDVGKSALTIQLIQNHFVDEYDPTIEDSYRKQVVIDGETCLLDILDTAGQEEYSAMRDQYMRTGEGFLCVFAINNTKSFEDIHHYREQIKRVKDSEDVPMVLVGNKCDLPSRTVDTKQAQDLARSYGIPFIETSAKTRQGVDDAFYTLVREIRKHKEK
KRAS G13D, sequence (P62937 whole entry): as the sequence (P62937 whole entry) above
From the text: as §2, §3, §4
as §3, with “BRAF^RBDD” for “BRAF^RBD”

KRAS G13C = KRAS G13C (Homo sapiens, UniProt P01116+P62937, G13C); assay: as above; type: biochemical
KRAS G13C, sequence (P01116 1-169 isoform P01116-2 G13C): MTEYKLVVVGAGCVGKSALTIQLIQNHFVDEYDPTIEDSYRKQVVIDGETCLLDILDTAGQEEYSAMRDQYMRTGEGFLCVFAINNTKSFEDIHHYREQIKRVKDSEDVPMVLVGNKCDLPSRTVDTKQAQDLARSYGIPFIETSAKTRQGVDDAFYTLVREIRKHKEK
KRAS G13C, sequence (P62937 whole entry): as the sequence (P62937 whole entry) above
From the text: as §2, §3, §4
as §3, with “BRAF^RBDD” for “BRAF^RBD”

KRAS G12C = KRAS G12C (Homo sapiens, UniProt P01116+P62937, G12C); assay: as above; type: biochemical
KRAS G12C, sequence (P01116 1-169 isoform P01116-2 G12C): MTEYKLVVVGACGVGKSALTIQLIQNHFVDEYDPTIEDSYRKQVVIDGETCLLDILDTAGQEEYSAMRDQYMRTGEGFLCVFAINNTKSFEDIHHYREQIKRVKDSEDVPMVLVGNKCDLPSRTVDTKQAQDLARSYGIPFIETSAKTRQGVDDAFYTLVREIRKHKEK
KRAS G12C, sequence (P62937 whole entry): as the sequence (P62937 whole entry) above
From the text: as §2, §3, §4
as §3, with “BRAF^RBDD” for “BRAF^RBD”

KRAS G12V = KRAS G12V (Homo sapiens, UniProt P01116+P62937, G12V); assay: as above; type: biochemical
KRAS G12V, sequence (P01116 1-169 isoform P01116-2 G12V limits assumed): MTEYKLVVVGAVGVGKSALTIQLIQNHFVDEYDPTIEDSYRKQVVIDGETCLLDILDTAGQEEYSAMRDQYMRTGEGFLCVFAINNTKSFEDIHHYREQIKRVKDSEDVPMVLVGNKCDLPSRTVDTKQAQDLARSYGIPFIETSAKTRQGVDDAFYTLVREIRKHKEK
KRAS G12V, sequence (P62937 whole entry): as the sequence (P62937 whole entry) above
From the text: as §2, §3, §4
as §3, with “BRAF^RBDD” for “BRAF^RBD”

KRAS WT = KRAS WT (Homo sapiens, UniProt P01116+P62937); assay: as above; type: biochemical
KRAS WT, sequence (P01116 1-169 isoform P01116-2 limits assumed): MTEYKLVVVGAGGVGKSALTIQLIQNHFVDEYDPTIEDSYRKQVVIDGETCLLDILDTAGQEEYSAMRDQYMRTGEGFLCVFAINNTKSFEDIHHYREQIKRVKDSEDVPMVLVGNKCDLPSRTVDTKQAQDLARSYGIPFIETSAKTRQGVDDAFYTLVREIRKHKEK
KRAS WT, sequence (P62937 whole entry): as the sequence (P62937 whole entry) above
From the text: as §2, §3, §4
as §3, with “BRAF^RBDD” for “BRAF^RBD”

NRAS G12C = NRAS G12C (Homo sapiens, UniProt P01111+P62937, G12C); assay: as above; type: biochemical; settings: NRAS G12C; read-out: NRAS G12C FRET data IC50
NRAS G12C, sequence (P01111 whole entry G12C): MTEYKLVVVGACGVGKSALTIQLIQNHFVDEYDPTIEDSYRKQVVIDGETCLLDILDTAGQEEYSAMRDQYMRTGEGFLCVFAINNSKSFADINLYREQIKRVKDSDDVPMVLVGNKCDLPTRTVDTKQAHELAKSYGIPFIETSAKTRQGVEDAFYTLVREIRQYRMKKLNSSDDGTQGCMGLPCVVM
NRAS G12C, sequence (P62937 whole entry): as the sequence (P62937 whole entry) above
From the text: as §2, §3, §4
as §3, with “BRAF^RBDD” for “BRAF^RBD”

[1] = NCI-H358, H358, K-Ras G12C, read-out: Additional H358 Cell Viability assay data (K-Ras G12C, IC50)
[2] = NCI-H358, 120 h, 5-day treatment, read-out: H358 Cell Viability assay data (K-Ras G12C, IC50)
[3] = KRAS G12V, read-out: KRAS G12V FRET data IC50

In the case of `C=CC(=O)N1CC[C@H](C(=O)N(C)[C@H](C(=O)N[C@H]2Cc3nc(cs3)-c3ccc4c(n3)c(c(-c3cccnc3[C@H](C)OC)n4CC)CC(C)(C)COC(=O)[C@@H]3CCCN(N3)C2=O)C(C)C)C1` [Example A347, (2S)—N-[(7S,13S)-21-ethyl-20-{2-[(1S)-1-methoxyethyl]pyridin-3-yl}-17,17-dimethyl-8,14-dioxo-15-oxa-4-thia-9,21,25,27,28-pentaazapentacyclo[17.5.2.1^{2,5}.1^{9,13}.0^{22,26}]octacosa-1(25),2,5(25),19,22(26),23-hexaen-7-yl]-3-methy-2-{N-methyl-1-[(3S)-1-(prop-2-enoyl)pyrrolidin-3-yl]formamido}butanamide], the IC50 (NCI-H358 (K-Ras G12C); [1]) is reported as 100 to 1000 nM.

For `CCn1c(-c2cccnc2COC)c2c3cc(ccc31)-c1cc(C)cc(c1)C[C@H](NC(=O)[C@H](C(C)C)N(C)C(=O)[C@H]1CCN(C(=O)C#CCN(C)C)C1)C(=O)N1CCC[C@H](N1)C(=O)OCC(C)(C)C2` [Example A157], the IC50 (NCI-H358 (K-Ras G12C); [1]) was less than 10 nM.

With `CCn1c(-c2cccnc2[C@H](C)OC)c2c3cc(ccc31)-c1cc(O)cc(c1)C[C@H](NC(=O)[C@H](C(C)C)N(C)C(=O)[C@@H]1C[C@@H]1C)C(=O)N1CCC[C@H](N1)C(=O)OCC(C)(C)C2` [Example A223] the IC50 (NCI-H358 (K-Ras G12C); [2]) was 10 to 100 nM.

Molecule `CCn1c(-c2cccnc2COC)c2c3cc(ccc31)-c1cc(O)cc(c1)C[C@H](NC(=O)[C@H](C(C)C)N(C)C(=O)[C@H]1CCN(C(C)=O)C1)C(=O)N1CCC[C@H](N1)C(=O)OCC(C)(C)C2` [Example A22] has an IC50 (KRAS G12D; read-out: KRAS G12D FRET data, IC50) of 1000 to 10000 nM, an IC50 (KRAS G12S; read-out: KRAS G12S FRET data, IC50) of 100 to 1000 nM and an IC50 (KRAS G13D; KRAS G13D, read-out: KRAS G13D FRET data IC50) of 1000 to 10000 nM. The IC50 (KRAS G13C; read-out: KRAS G13C FRET data, IC50) was 100 to 1000 nM, the IC50 (KRAS G12C; read-out: KRAS G12C FRET data, IC50) was 100 to 1000 nM and the IC50 (KRAS G12V; [3]) was 100 to 1000 nM. It also gave an IC50 (KRAS WT; KRAS WT, read-out: KRAS WT FRET data IC50) of 100 to 1000 nM and an IC50 (NCI-H358 (K-Ras G12C); [2]) of 1000 to 10000 nM.

With `CCn1c(-c2cccnc2[C@H](C)OC)c2c3cc(ccc31)-c1cc(O)cc(c1)C[C@H](NC(=O)[C@H](C(C)C)N(C)C(=O)[C@@H]1C[C@@H]1F)C(=O)N1CCC[C@H](N1)C(=O)OCC(C)(C)C2` [Example A160] the IC50 (KRAS G12V; [3]) was 10 to 100 nM and the IC50 (NCI-H358 (K-Ras G12C); [2]) was 10 to 100 nM.

`CCn1c(-c2cnccc2COC)c2c3cc(ccc31)-c1cc(O)cc(c1)C[C@H](NC(=O)[C@H](C(C)C)N(C)C(=O)[C@@H]1CCN(C[C@@H](C)O)C1)C(=O)N1CCC[C@H](N1)C(=O)OCC(C)(C)C2` [Example A31] was tested, and the IC50 (NRAS G12C) was 100 to 1000 nM and the IC50 (NCI-H358 (K-Ras G12C); [2]) was greater than 10000 nM.

`C=CC(=O)Nc1cnc(C(=O)N(C)[C@H](C(=O)N[C@H]2Cc3cccc(c3)-c3ccc4c(c3)c(c(-c3cccnc3[C@H](C)OC)n4CC)CC(C)(C)COC(=O)[C@@H]3CCCN(N3)C2=O)C(C)C)n1C` [Example A525] showed an IC50 (NCI-H358 (K-Ras G12C); [1]) of less than 10 nM.

Work on `CCn1c(-c2ccccc2CCOC)c2c3cc(ccc31)-c1cc(O)cc(c1)C[C@H](NC(=O)[C@H](C(C)C)N(C)C(=O)CCN)C(=O)N1CCC[C@H](N1)C(=O)OCC(C)(C)C2` [Example A70] yielded an IC50 (KRAS G12D; KRAS G12D FRET data, IC50) of 1000 to 10000 nM, an IC50 (KRAS G12S; KRAS G12S FRET data, IC50) of 1000 to 10000 nM and an IC50 (KRAS G13D; KRAS G13D FRET data IC50, KRAS G13D) of 1000 to 10000 nM. For the same molecule, the IC50 (KRAS G13C; KRAS G13C FRET data, IC50) was 1000 to 10000 nM, the IC50 (KRAS G12C; KRAS G12C FRET data, IC50) was 1000 to 10000 nM and the IC50 (KRAS G12V; KRAS G12V FRET data IC50, KRAS G12V) was greater than 10000 nM. For the same molecule, the IC50 (KRAS WT; KRAS WT FRET data IC50, KRAS WT) was 1000 to 10000 nM and the IC50 (NCI-H358 (K-Ras G12C); [2]) was 1000 to 10000 nM.

Work on `CCn1c(-c2cccnc2[C@H](C)OC)c2c3cc(ccc31)-c1cccc(c1)C[C@H](NC(=O)[C@H](C(C)C)N(C)C(=O)[C@H]1CCN(C(=O)/C=C/CN3CC(OC)C3)C1)C(=O)N1CCC[C@H](N1)C(=O)OCC(C)(C)C2` (atropisomer, axis not shown) [Example A204] yielded an IC50 (NCI-H358 (K-Ras G12C); [1]) of 10 to 100 nM.

For `C=CC(=O)N1CC[C@H](C(=O)N(C)[C@H](C(=O)N[C@H]2Cc3cc(O)cc(c3)-c3ccc4c(c3)c(c(-c3ccccc3CCOC)n4C(C)(C)C#N)CC(C)(C)COC(=O)[C@@H]3CCCN(N3)C2=O)C(C)C)C1` [Example A34], the IC50 (NCI-H358 (K-Ras G12C); [1]) was 10 to 100 nM.
